This is an account of results in patent US7582660B2, “2-thio-substituted imidazole derivatives and their use in pharmaceutics” (c-a-i-r biosciences GmbH, priority 2002, dated 2009).

The structures appear in SMILES notation.

Assay [1] concerns IL-1β. The experiment in a line: In vitro test with human whole blood, LPS-stimulated IL-1β release (ELISA). The format is cell-based. The conditions noted are these: read-out: K50 (μM) Whole blood IL-1β. The method, then: (§1) They may be administered in one individual dose or in a plurality of doses. The activity spectrum of the compounds as inhibitors of cytokine release was examined using the test systems below, as described by C. Donat and S. Laufer in Arch. Pharm. Pharm. […] 1, 1-40. 2000.
(§2) In Vitro Test with Human Whole Blood
(§3) The reaction is stopped by placing the samples on ice, adding DPBS buffer and then centrifuging at 1000 g for 15 min. The amount of IL-1β and TNFα in the plasma supernatant is then determined by ELISA.
On the technique in general: ELISA stands for enzyme-linked immunosorbent assay.

The next assay has as its target p 38 (Homo sapiens, UniProt Q16539). The experiment in a line: Kinase assay (activated p38a, ATF2 substrate, ELISA readout). The conditions noted are these: ATF2, 100 μM ATP. The class given is biochemical. The method, then: The reaction is stopped by placing the samples on ice, adding DPBS buffer and then centrifuging at 15 880 g for 12 min. The amount of IL-1β and TNFα in the plasma supernatant is then determined by ELISA. 2) Kinase Assay • At 37° C., microtiter plates were coated for one hour with 50 μl of ATF2 solution (20 μg/ml). The plates were washed three times with water, and 50 μl of kinase mixture (50 mM tris-HCl, 10 mM MgCl2, 10 mM β-glycerol phosphate, 10 μg/ml of BSA, 1 mM DTT, 100 μM ATP, 100 μM Na3VO4, 10 ng of activated p38a) with or without inhibitor were added into the wells, and the plates were incubated at 37° C. for 1 hour. The plates were washed three times and then incubated with phosphorus-ATF-2 antibody for one hour. The plates were once more washed three times, and goat-antirabbit IgG labeled with alkaline phosphatase was added at 37° C. for one hour (to fix antibody-phosphorylated protein/substrate complex). The plates were washed three times, and the alkaline phosphatase/substrate solution (3 mM 4-NPP, 50 mM NaHCO3, 50 mM MgCl2, 100 μl/well) was added at 37° C. for 1.5 hours. […] The IC50 values were calculated.

Assay [2] has as its system TNF-α. Nature of the assay: In vitro test with PBMCs, LPS-stimulated TNFα release (ELISA). The format is cell-based. The conditions noted are these: human PBMCs, LPS 4 hours, read-out: IC50 (μM) PBMCA TNF-α.
The test system of assay [3] is IL-1β. Nature of the assay: In vitro test with PBMCs, LPS-stimulated IL-1β release (ELISA). The class given is cell-based. The conditions noted are these: human PBMCs, LPS 4 hours, read-out: IC50 (μM) PBMCA IL-1β.
The test system of assay [4] is TNF-α. Nature of the assay: In vitro test with human whole blood, LPS-stimulated TNFα release (ELISA). The conditions noted are these: 1 μg/ml LPS 4 hours, read-out: K50 (μM) Whole blood TNF-α. The format is cell-based. The method, then:
as §1, §2, §3

Where [5] appears, read: human whole blood, 1 μg/ml LPS 4 hours.

Chain of p 38 (Q16539 whole entry): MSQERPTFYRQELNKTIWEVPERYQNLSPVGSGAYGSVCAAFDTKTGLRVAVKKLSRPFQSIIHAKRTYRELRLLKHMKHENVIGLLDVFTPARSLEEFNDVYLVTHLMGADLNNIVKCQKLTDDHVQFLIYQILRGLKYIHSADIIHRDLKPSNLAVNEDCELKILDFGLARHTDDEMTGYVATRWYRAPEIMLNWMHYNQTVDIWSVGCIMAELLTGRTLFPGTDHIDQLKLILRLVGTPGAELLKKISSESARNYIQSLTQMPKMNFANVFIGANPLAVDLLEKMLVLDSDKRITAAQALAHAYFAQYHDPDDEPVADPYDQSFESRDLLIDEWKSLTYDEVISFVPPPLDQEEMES

On to `CSc1nc(-c2ccc(F)cc2)c(-c2ccnc(NC(C)c3ccccc3)c2)[nH]1` (racemic) [Compound 25m, (RS)-{4-[5-(4-Fluorophenyl)-2-methylsulfanyl-3H-imidazol-4-yl]pyridin-2-yl}-(1-phenylethyl)amine], for which the IC50 with IL-1β [1] (Homo sapiens, 4 h) amounted to 0.99 µM.
`CC(Nc1cc(-c2[nH]c(SCc3ccccc3)nc2-c2ccc(F)cc2)ccn1)c1ccccc1` (racemic) [Compound 26d, (RS)-{4-[2-Benzylsulfanyl-S-(4-fluorophenyl)-3H-imidazol-4-yl]pyridin-2-yl}-(1-phenylethyl)amine]: the values for the IC50 against p 38, in the assay on TNF-α [2] (PBMC) and with IL-1β [3] (PBMC) were 0.38 µM, 2.7 µM and 0.045 µM, respectively.
Regarding `CC(Nc1cc(-c2[nH]c(SCc3ccc([S+](C)[O-])cc3)nc2-c2ccc(F)cc2)ccn1)c1ccccc1` (racemic) [Compound 27d, (RS)-{4-[5-(4-Fluorophenyl)-2-(4-methanesulfinylbenzylsulfanyl)-3H-imidazol-4-yl]pyridin-2-yl}-(1-phenylethyl)amine], the IC50 on p 38 turned out to be 0.27 µM; with TNF-α [2] (PBMC), 0.91 µM; in the assay on TNF-α [4] it was 10 µM; in the assay with IL-1β [1] (setting [5]) it was 15.7 µM; with IL-1β [3] (PBMC) it was 0.04 µM.
Turning to `CSc1nc(-c2ccc(F)cc2)c(-c2ccnc(Cl)c2)[nH]1` [Compound 25a, 2-Chloro-4-[5-(4-fluorophenyl)-2-methylsulfanyl-3H-imidazol-4-yl]pyridine], the IC50 in the assay on TNF-α [2] (PBMC) amounted to 2.2 µM; with IL-1β [3] (PBMC) it was 0.35 µM.
With `CSc1nc(-c2ccc(F)cc2)c(-c2ccnc(F)c2)[nH]1` [Compound 25b, 2-Fluoro-4-[5-(4-fluorophenyl)-2-methylsulfanyl-3H-imidazol-4-yl]pyridine], the IC50 on p 38 was determined as 3.8 µM; in the assay with TNF-α [2] (PBMC), 2.8 µM; in the assay with IL-1β [3] (PBMC), 0.3 µM.
Consider `CSc1nc(-c2ccc(F)cc2)c(-c2ccnc(OC(C)C)c2)[nH]1` [Compound 25c, 4-[5-(4-Fluorophenyl)-2-methylsulfanyl-3H-imidazol-4-yl]-2-isopropoxypyridin], for which the IC50 against p 38 stood at 8.7 µM; in the assay with TNF-α [2] (PBMC), 4.6 µM; in the assay on TNF-α [4], 7.2 µM; in the assay on IL-1β [1] (setting [5]), 2.2 µM; with IL-1β [3] (PBMC) it was 2.7 µM.
Take `COc1cc(-c2[nH]c(SC)nc2-c2ccc(F)cc2)ccn1` [Compound 25d, 4-[5-(4-Fluorophenyl)-2-methylsulfanyl-3H-imidazol-4-yl]-2-methoxypyridine]: the IC50 with TNF-α [2] (PBMC) was determined as 1.9 µM; in the assay with IL-1β [3] (PBMC), 0.15 µM.
For the molecule `CSc1nc(-c2ccc(F)cc2)c(-c2cc[nH]c(=O)c2)[nH]1` [Compound 25e, 4-[5-(4-Fluorophenyl)-2-methylsulfanyl-3H-imidazol-4-yl]-1H-pyridin-2-one], the IC50 is 3.1 µM with TNF-α [2] (PBMC) and 0.5 µM in the assay with IL-1β [3] (PBMC).
Regarding `CSc1nc(-c2ccc(F)cc2)c(-c2ccnc(NCc3ccccc3)c2)[nH]1` [Compound 25f, Benzyl{4-[S-(4-fluorophenyl)-2-methylsulfanyl-3H-imidazol-4-yl]pyridin-2-yl}-amine], the IC50 at p 38 was 0.65 µM; in the assay on TNF-α [2], 0.63 µM; with IL-1β [3], 0.108 µM.
Take `COc1ccc(CNc2cc(-c3[nH]c(SC)nc3-c3ccc(F)cc3)ccn2)cc1` [Compound 25g, {4-[5-(4-Fluorophenyl)-2-methylsulfanyl-3H-imidazol-4-yl]pyridin-2-yl}-(4-methoxybenzyl)amine]: the values for the IC50 on p 38, with TNF-α [2] (PBMC) and with IL-1β [3] (PBMC) were 0.79 µM, 0.64 µM and 0.056 µM, respectively.
`CSc1nc(-c2ccc(F)cc2)c(-c2ccnc(NCc3ccc(C)cc3)c2)[nH]1` [Compound 25h, {4-[5-(4-Fluorophenyl)-2-methylsulfanyl-3H-imidazol-4-yl]pyridin-2-yl}-(4-methylbenzyl)amine]: the IC50 was found to be 0.83 µM against p 38; 0.67 µM in the assay with TNF-α [2] (PBMC); 17.3 µM in the assay on TNF-α [4]; 22.3 µM in the assay with IL-1β [1] (setting [5]); 0.085 µM with IL-1β [3] (PBMC).
In the case of `CSc1nc(-c2ccc(F)cc2)c(-c2ccnc(NCc3ccc(Cl)cc3)c2)[nH]1` [Compound 25i, (4-Chlorobenzyl)-{4-[5-(4-fluorophenyl)-2-methylsulfanyl-3H-imidazol-4-yl]-pyridin-2-yl}amine], the IC50 against p 38 is 0.95 µM; in the assay with TNF-α [2] (PBMC), 0.5 µM; in the assay with TNF-α [4], 14.8 µM; with IL-1β [1] (setting [5]), 13.3 µM; in the assay on IL-1β [3] (PBMC) it was 0.15 µM.
Regarding `CSc1nc(-c2ccc(F)cc2)c(-c2ccnc(NCc3ccc(Cl)c(Cl)c3)c2)[nH]1` [Compound 25j, (3,4-Dichlorobenzyl)-{4-[5-(4-fluorophenyl)-2-methylsulfanyl-3H-imidazol4-yl]-pyridin-2-yl}amine], the results for the IC50 at p 38, in the assay with TNF-α [2] (PBMC) and in the assay on IL-1β [3] (PBMC) were 0.7 µM, 0.72 µM and 0.23 µM, respectively.
Take `CSc1nc(-c2ccc(F)cc2)c(-c2ccnc(Nc3ccccc3)c2)[nH]1` [Compound 25k, {4-[5-(4-Fluorophenyl)-2-methylsulfanyl-3H-imidazol-4-yl]pyridin-2-yl}-phenylamine]: the IC50 amounted to 0.13 µM on p 38, 0.34 µM in the assay on TNF-α [2] (PBMC) and 0.03 µM in the assay on IL-1β [3] (PBMC).
For `CSc1nc(-c2ccc(F)cc2)c(-c2ccnc(NCCc3ccccc3)c2)[nH]1` [Compound 25l, {4-[5-(4-Fluorophenyl)-2-methylsulfanyl-3H-imidazol4-yl]pyridin-2-yl}-phenethylamine], the IC50 against p 38 worked out at 0.24 µM; in the assay on TNF-α [2] (PBMC), 0.35 µM; with TNF-α [4] it was 14.9 µM; in the assay with IL-1β [1] (setting [5]) it was 17.1 µM; in the assay with IL-1β [3] (PBMC), 0.031 µM.
Take `Fc1ccc(-c2nc(SCc3ccccc3)[nH]c2-c2ccnc(Cl)c2)cc1` [Compound 26a, 4-[2-Benzylsulfanyl-5-(4-fluorophenyl)-3H-imidazol-4-yl]-2-chloropyridine]: the IC50 in the assay with TNF-α [2] (PBMC) was found to be 60 µM; with IL-1β [3] (PBMC) it was 1.8 µM.
Regarding `Fc1ccc(-c2nc(SCc3ccccc3)[nH]c2-c2ccnc(F)c2)cc1` [Compound 26b, 4-[2-Benzylsulfanyl-5-(4-fluorophenyl)-3H-imidazol-4-yl]-2-fluoropyridine], the IC50 on p 38 was found to be 4.2 µM; in the assay on TNF-α [2] (PBMC), 40.5 µM; in the assay on IL-1β [3] (PBMC), 2.9 µM.
For the molecule `Fc1ccc(-c2nc(SCc3ccccc3)[nH]c2-c2ccnc(NCc3ccccc3)c2)cc1` [Compound 26c, Benzyl-{4-[2-benzylsulfanyl-5-(4-fluorophenyl)-3H-imidazol-4-yl]pyridin-2-yl}-amine], the IC50 turned out to be 1.42 µM against p 38, 3.2 µM in the assay on TNF-α [2] (PBMC) and 0.2 µM in the assay with IL-1β [3] (PBMC).
Turning to `COc1ccc(CNc2cc(-c3[nH]c(SCc4ccccc4)nc3-c3ccc(F)cc3)ccn2)cc1` [Compound 26e, {4-[2-Benzylsulfanyl-5-(4-fluorophenyl)-3H-imidazol-4-yl]pyridin-2-yl}-(4-methoxybenzyl)amine], the IC50 in the assay with TNF-α [2] (PBMC) was 21 µM; in the assay with IL-1β [3] (PBMC), 0.18 µM.
`C[S+]([O-])c1ccc(CSc2nc(-c3ccc(F)cc3)c(-c3ccnc(Cl)c3)[nH]2)cc1` (centres unmarked) [Compound 27a, 2-Chloro-4-[5-(4-fluorophenyl)-2-(4-methanesulfinylbenzylsulfanyl)-3H-imidazol-4-yl]pyridine]: the IC50 was 12 µM in the assay with TNF-α [2] (PBMC) and 2.1 µM in the assay on IL-1β [3] (PBMC).
As for `C[S+]([O-])c1ccc(CSc2nc(-c3ccc(F)cc3)c(-c3ccnc(F)c3)[nH]2)cc1` (centres unmarked) [Compound 27b, 2-Fluoro-4-[5-(4-fluorophenyl)-2-(4-methanesulfinylbenzylsulfanyl)-3H-imidazol-4-yl]pyridine], the results for the IC50 against p 38, in the assay with TNF-α [2] (PBMC) and in the assay on IL-1β [3] (PBMC) were 9.3 µM, 6.9 µM and 2.45 µM, respectively.
As for `C[S+]([O-])c1ccc(CSc2nc(-c3ccc(F)cc3)c(-c3ccnc(NCc4ccccc4)c3)[nH]2)cc1` (centres unmarked) [Compound 27c, Benzyl-{4-[5-(4-fluorophenyl)-2-(4-methanesulfinylbenzylsulfanyl)-3H-imidazol-4-yl]pyridin-2-yl}amine], the figures for the IC50 on p 38, with TNF-α [2] (PBMC) and in the assay on IL-1β [3] (PBMC) were 1.45 µM, 2 µM and 0.47 µM, respectively.
